In brackets after ≈: the same amount, converted by molar mass.
How the values were obtained:
Type in all cases: functional
Escherichia coli = experiment: Antibacterial activity against Escherichia coli NIHJ JC-2
Pseudomonas aeruginosa = experiment: Antibacterial activity against Pseudomonas aeruginosa SR24
Enterococcus faecalis = experiment: Antibacterial activity against Streptococcus faecalis SR 1004
Staphylococcus aureus [1] = experiment: Antibacterial activity against Staphylococcus aureus FDA JC-1
Enterobacter cloacae = experiment: Minimum inhibitory concentration for antibacterial activity against Enterobacter cloacae AI 3047
Proteus vulgaris [2] = experiment: Minimum inhibitory concentration for antibacterial activity against Proteus vulgaris CN-329, activity expressed as MIC
Serratia marcescens = experiment: Minimum inhibitory concentration for antibacterial activity against Serratia marcescens A13880
Staphylococcus aureus [3] = experiment: Minimum inhibitory concentration for antibacterial activity against high resistant group of methicillin-resistant Staphylococcus aureus SR-3626(HR)
Staphylococcus aureus [4] = experiment: Minimum inhibitory concentration for antibacterial activity against low resistant group of methicillin-resistant Staphylococcus aureus SR-3131(LR)
Proteus vulgaris [5] = experiment: Minimum inhibitory concentration for antibacterial activity against Proteus vulgaris CN-329

SMILES	MIC (Escherichia coli)	MIC (Pseudomonas aeruginosa)	MIC (Enterococcus faecalis)	MIC (Staphylococcus aureus [1])	MIC (Enterobacter cloacae)	MIC (Proteus vulgaris [2])	MIC (Serratia marcescens)	MIC (Staphylococcus aureus [3])	MIC (Staphylococcus aureus [4])	MIC (Proteus vulgaris [5])
C[C@@H]([O-])[C@H]1C(=O)N2C(C(=O)[O-])=C(/C=C/C[N+]34CCC(CC3)CC4)[C@H](C)[C@H]12.[Na+]	0.2 µg/mL	50 µg/mL	0.8 µg/mL	0.02 µg/mL	–	–	–	–	–	–
C[C@@H]([O-])[C@H]1C(=O)N2C(C(=O)[O-])=C(/C=C/Cn3cc[n+]4ccccc34)[C@H](C)[C@H]12.[Na+]	0.1 µg/mL	25 µg/mL	0.8 µg/mL	0.02 µg/mL	–	–	–	–	–	–
C[C@@H](O)[C@H]1C(=O)N2C(C(=O)[O-])=C(/C=C/c3cccc[n+]3C)[C@H](C)[C@H]12	1.6 µg/mL (≈ 4.87 µM)	50 µg/mL (≈ 152 µM)	6.3 µg/mL (≈ 19.2 µM)	0.1 µg/mL (≈ 0.305 µM)	–	–	–	–	–	–
C/C(=C\C1=C(C(=O)[O-])N2C(=O)[C@H]([C@@H](C)O)[C@H]2[C@H]1C)C[n+]1ccccc1	0.1 µg/mL (≈ 0.292 µM)	6.3 µg/mL (≈ 18.4 µM)	0.8 µg/mL (≈ 2.34 µM)	0.02 µg/mL (≈ 0.0584 µM)	–	–	–	–	–	–
C[C@@H](O)[C@H]1C(=O)N2C(C(=O)[O-])=C(C[n+]3ccccc3)[C@H](C)[C@H]12	0.1 µg/mL (≈ 0.331 µM)	1.6 µg/mL (≈ 5.29 µM)	6.3 µg/mL (≈ 20.8 µM)	< 0.006 µg/mL	0.2 µg/mL (≈ 0.662 µM)	0.4 µg/mL (≈ 1.32 µM)	1.6 µg/mL (≈ 5.29 µM)	50 µg/mL (≈ 165 µM)	0.1 µg/mL (≈ 0.331 µM)	–
C[C@@H](O)[C@H]1C(=O)N2C(C(=O)[O-])=C(/C=C/COC(N)=O)[C@H](C)[C@H]12.[Na+]	0.2 µg/mL	50 µg/mL	1.6 µg/mL	0.02 µg/mL	–	–	–	–	–	–
C[C@@H](O)[C@H]1C(=O)N2C(C(=O)[O-])=C(C[n+]3cccc(N)c3)[C@H](C)[C@H]12	0.2 µg/mL (≈ 0.63 µM)	1.6 µg/mL (≈ 5.04 µM)	6.3 µg/mL (≈ 19.9 µM)	0.006 µg/mL (≈ 0.0189 µM)	–	–	–	–	–	–
C[C@@H]([O-])[C@H]1C(=O)N2C(C(=O)[O-])=C(/C=C/CSc3cc[n+](C)cc3)[C@H](C)[C@H]12.[Na+]	0.2 µg/mL	12.5 µg/mL	0.4 µg/mL	0.01 µg/mL	–	–	–	–	–	–
C[C@@H](O)[C@H]1C(=O)N2C(C(=O)[O-])=C(/C=C/C[n+]3ccccc3)[C@H](C)[C@H]12	0.05 µg/mL (≈ 0.152 µM)	1.6 µg/mL (≈ 4.87 µM)	0.4 µg/mL (≈ 1.22 µM)	0.006 µg/mL (≈ 0.0183 µM)	0.2 µg/mL (≈ 0.609 µM)	–	0.8 µg/mL (≈ 2.44 µM)	50 µg/mL (≈ 152 µM)	0.05 µg/mL (≈ 0.152 µM)	0.2 µg/mL (≈ 0.609 µM)
C[C@@H](O)[C@H]1C(=O)N2C(C(=O)[O-])=C(C[n+]3ccc(C(N)=O)cc3)[C@H](C)[C@H]12	0.4 µg/mL (≈ 1.16 µM)	1.6 µg/mL (≈ 4.63 µM)	25 µg/mL (≈ 72.4 µM)	0.02 µg/mL (≈ 0.0579 µM)	–	–	–	–	–	–
C[C@@H](O)[C@H]1C(=O)N2C(C(=O)[O-])=C(/C=C/c3cc[n+](C)cc3)[C@H](C)[C@H]12	0.4 µg/mL (≈ 1.22 µM)	25 µg/mL (≈ 76.1 µM)	1.6 µg/mL (≈ 4.87 µM)	0.05 µg/mL (≈ 0.152 µM)	–	–	–	–	–	–
C[C@@H](O)[C@H]1C(=O)N2C(C(=O)[O-])=C(C[n+]3ccc(-c4cnco4)cc3)[C@H](C)[C@H]12	0.2 µg/mL (≈ 0.541 µM)	1.6 µg/mL (≈ 4.33 µM)	6.3 µg/mL (≈ 17.1 µM)	0.01 µg/mL (≈ 0.0271 µM)	–	–	–	–	–	–
C[C@@H](O)[C@H]1C(=O)N2C(C(=O)[O-])=C(/C=C/CSc3nncs3)[C@H](C)[C@H]12.[Na+]	3.1 µg/mL	100 µg/mL	1.6 µg/mL	0.02 µg/mL	–	–	–	–	–	–
C[C@@H](O)[C@H]1C(=O)N2C(C(=O)[O-])=C(C[n+]3cccc(C(N)=O)c3)[C@H](C)[C@H]12	0.4 µg/mL (≈ 1.16 µM)	1.6 µg/mL (≈ 4.63 µM)	25 µg/mL (≈ 72.4 µM)	0.02 µg/mL (≈ 0.0579 µM)	–	–	–	–	–	–
Cc1ccc[n+](CC2=C(C(=O)[O-])N3C(=O)[C@H]([C@@H](C)O)[C@H]3[C@H]2C)c1	0.2 µg/mL (≈ 0.632 µM)	1.6 µg/mL (≈ 5.06 µM)	12.5 µg/mL (≈ 39.5 µM)	0.01 µg/mL (≈ 0.0316 µM)	–	–	–	–	–	–
C[C@@H](O)[C@H]1C(=O)N2C(C(=O)[O-])=C(/C=C/c3ccc[n+](C)c3)[C@H](C)[C@H]12	0.1 µg/mL (≈ 0.305 µM)	25 µg/mL (≈ 76.1 µM)	0.2 µg/mL (≈ 0.609 µM)	0.01 µg/mL (≈ 0.0305 µM)	–	–	–	–	–	–
C[C@@H](O)[C@H]1C(=O)N2C(C(=O)O)=C(SCCNC=N)C[C@H]12 [IMIPENEM ANHYDROUS]	0.1 µg/mL (≈ 0.334 µM)	1.6 µg/mL (≈ 5.34 µM)	1.6 µg/mL (≈ 5.34 µM)	0.006 µg/mL (≈ 0.02 µM)	0.4 µg/mL (≈ 1.34 µM)	–	0.8 µg/mL (≈ 2.67 µM)	50 µg/mL (≈ 167 µM)	0.05 µg/mL (≈ 0.167 µM)	0.4 µg/mL (≈ 1.34 µM)
